Key:
[1] = target: Cyclin-dependent kinase 2 (Homo sapiens, UniProt P24941); test: In vitro inhibition of Cyclin-dependent kinase 2 was determined.
[2] = target: Cyclin-dependent kinase 1 (Homo sapiens, UniProt P06493); test: Inhibition of Cyclin-dependent kinase 1
Chain of Cyclin-dependent kinase 1 (P06493 whole entry): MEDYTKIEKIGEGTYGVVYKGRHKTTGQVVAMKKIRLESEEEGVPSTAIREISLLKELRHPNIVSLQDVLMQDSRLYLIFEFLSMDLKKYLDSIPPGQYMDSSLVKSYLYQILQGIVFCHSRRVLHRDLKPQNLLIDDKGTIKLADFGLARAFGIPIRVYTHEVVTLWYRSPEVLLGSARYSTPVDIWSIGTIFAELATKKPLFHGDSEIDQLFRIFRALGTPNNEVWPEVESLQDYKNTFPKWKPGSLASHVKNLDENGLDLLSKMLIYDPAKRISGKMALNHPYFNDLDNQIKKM

| SMILES | IC50 [1] | IC50 [2] |
| --- | --- | --- |
| CS(=O)(=O)Nc1ccc(Nc2cc(-c3cccc(Br)c3)n[nH]2)cc1 | 602 nM |  |
| COc1cccc(-c2cc(Nc3ccc(S(N)(=O)=O)cc3)[nH]n2)c1 | 24.5 nM | 398 nM |
| Nc1cccc(-c2cc(Nc3ccc(S(N)(=O)=O)cc3)[nH]n2)c1 | 166 nM |  |
| NS(=O)(=O)c1ccc(Nc2cc(-c3cccc(NC(=O)Nc4cc(C(F)(F)F)ccc4F)c3)n[nH]2)cc1 | 61.6 nM | 794 nM |
| NS(=O)(=O)c1cccc(Nc2cc(-c3ccc(F)cc3)n[nH]2)c1 | 871 nM |  |
| NS(=O)(=O)c1ccc(Nc2cc(-c3cccc(N4CCOCC4)c3)n[nH]2)cc1 | 490 nM |  |
| NS(=O)(=O)c1ccc(Nc2cc(-c3cccc(Br)c3)n[nH]2)cc1 | 23.4 nM |  |
| CN(C)c1ccc(-c2cc(Nc3ccc(S(N)(=O)=O)cc3)[nH]n2)cc1 | > 2000 nM |  |
| COc1ccc(-c2cc(Nc3ccc(S(N)(=O)=O)cc3)[nH]n2)cc1F | 407 nM |  |

The next molecules have a lower IC50 [1] than those just listed; values first:

| IC50 [1] | IC50 [2] | SMILES |
| --- | --- | --- |
| 17.4 nM |  | NS(=O)(=O)c1ccc(Nc2cc(-c3ccc(F)cc3)n[nH]2)cc1 |
| 12.6 nM | 200 nM | NS(=O)(=O)c1ccc(Nc2cc(-c3ccc(O)c(F)c3)n[nH]2)cc1 [GW831091X] |
| 10.7 nM | 501 nM | CS(=O)(=O)Nc1cccc(-c2cc(Nc3ccc(S(N)(=O)=O)cc3)[nH]n2)c1 |
| 10.7 nM | 501 nM | NS(=O)(=O)c1ccc(Nc2cc(-c3cccc(NS(=O)(=O)c4ccccc4)c3)n[nH]2)cc1 |
| 10 nM | 126 nM | NS(=O)(=O)c1ccc(Nc2cc(-c3ccc(Br)cc3)n[nH]2)cc1 |
| 9.1 nM | 398 nM | NS(=O)(=O)c1ccc(Nc2cc(-c3cccc(O)c3)n[nH]2)cc1 [GW831090X] |
| 0.34 nM | 501 nM | Nc1ccc(-c2cc(Nc3ccc(S(N)(=O)=O)cc3)[nH]n2)cc1 |
| 0.33 nM |  | NS(=O)(=O)c1ccc(Nc2cc(-c3ccc([N+](=O)[O-])cc3)n[nH]2)cc1 |

— ChEMBL document CHEMBL1136197, “Anilinopyrazole as selective CDK2 inhibitors: design, synthesis, biological evaluation, and X-ray crystallographic analysis” (Bioorg Med Chem Lett, 2003)
